# Laboratory results from patent publication US8664257B2, “Oxygen-substituted 3-heteroaroylamino-propionic acid derivatives and their use as pharmaceuticals” (Sanofi, priority 2010, dated 2014).
# Target: T1, Recombinant human cathepsin A (Homo sapiens, UniProt P10619)
# T1 construct: Recombinant human cathepsin A (residues 29-480, with a C-terminal 10-His tag); 10-His (C); purchased R&D Systems 1049-SE
# T1 sequence (P10619 29-312 limits assumed): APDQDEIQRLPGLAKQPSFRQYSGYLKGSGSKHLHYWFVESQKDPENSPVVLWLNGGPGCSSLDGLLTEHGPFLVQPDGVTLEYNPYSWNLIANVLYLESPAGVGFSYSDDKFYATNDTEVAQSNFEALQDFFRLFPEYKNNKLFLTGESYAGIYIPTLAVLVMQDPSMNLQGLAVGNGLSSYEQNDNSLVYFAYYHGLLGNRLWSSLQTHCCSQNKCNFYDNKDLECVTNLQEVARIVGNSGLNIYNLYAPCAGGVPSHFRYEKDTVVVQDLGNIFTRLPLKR
# T1 sequence (P10619 327-480 limits assumed): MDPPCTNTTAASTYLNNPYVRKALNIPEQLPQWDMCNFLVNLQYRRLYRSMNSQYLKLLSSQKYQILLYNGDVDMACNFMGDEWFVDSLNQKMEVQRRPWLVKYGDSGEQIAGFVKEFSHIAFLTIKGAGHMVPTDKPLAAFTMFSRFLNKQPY
# Assay: Cathepsin A inhibitory activity
# Format: biochemical
# Details: read-out: Activity (2): Cathepsin A inhibitory activity (IC50 class)
# Method: a) Cathepsin A Inhibitory Activity
# Recombinant human cathepsin A (residues 29-480, with a C-terminal 10-His tag; R&D Systems, #1049-SE) was proteolytically activated with recombinant human cathepsin L (R&D Systems, #952-CY). Briefly, cathepsin A was incubated at 10 μg/ml with cathepsin L at 1 μg/ml in activation buffer (25 mM 2-(morpholin-4-yl)-ethanesulfonic acid (MES), pH 6.0, containing 5 mM dithiothreitol (DTT)) for 15 min at 37° C. Cathepsin L activity was then stopped by the addition of the cysteine protease inhibitor E-64 (N-(trans-epoxysuccinyl)-L-leucine-4-guanidinobutylamide; Sigma-Aldrich, #E3132; dissolved in activation buffer/DMSO) to a final concentration of 10 μM.
# The activated cathepsin A was diluted in assay buffer (25 mM MES, pH 5.5, containing 5 mM DTT) and mixed with the test compound (dissolved in assay buffer containing (v/v) 3% DMSO) or, in the control experiments, with the vehicle in a multiple assay plate. After incubation for 15 min at room temperature, as substrate then bradykinin carrying an N-terminal®Bodipy FL (4,4-difluoro-5,7-dimethyl-4-bora-3a,4a-diaza-s-indacene-3-propionyl) label (JPT Peptide Technologies GmbH; dissolved in assay buffer) was added to the mixture. The final concentration of cathepsin A was 833 ng/ml and the final concentration of labeled bradykinin 2 μM. After incubation for 15 min at room temperature the reaction was stopped by the addition of stop buffer (130 mM 2-(4-(2-hydroxy-ethyl)-piperazin-1-yl)-ethanesulfonic acid, pH 7.4, containing (v/v) 0.013% Triton X-100, 0.13% Coating Reagent 3 (Caliper Life Sciences), 6.5% DMSO and 20 μM ebelactone B (Sigma, # E0886)).
# Uncleaved substrate and product were then separated by a microfluidic capillary electrophoresis on a LabChip® 3000 Drug Discovery System (12-Sipper-Chip; Caliper Life Sciences) and quantified by determination of the respective peak areas. Substrate turnover was calculated by dividing product peak area by the sum of substrate and product peak areas, and the enzyme activity and the inhibitory effect of the test compound thus quantified. From the percentage of inhibition of cathepsin A activity observed with the test compound at several concentrations, the inhibitory concentration IC50, i.e. the concentration which effects 50% inhibition of enzyme activity was, calculated.
row,Structure (SMILES),IC50 [nM]
1,"Cc1ccccc1[C@H](CC(=O)O)NC(=O)c1cc(OC[C@H](O)C(C)(C)C)n(-c2ccccc2F)n1 (single isomer, unassigned) [Example 745]",< 100
2,"Cc1ccccc1[C@H](CC(=O)O)NC(=O)c1cc(OC[C@](C)(O)C(C)(C)C)n(-c2ccccc2F)n1 (single isomer, unassigned) [Example 747]",< 100
3,"Cc1ccccc1[C@H](CC(=O)O)NC(=O)c1cc(OC[C@@](C)(O)C(C)(C)C)n(-c2ccccc2F)n1 (single isomer, unassigned) [Example 748]",< 100
4,"CC(C)(C)[C@@](C)(O)COc1cc(C(=O)N[C@@H](CC(=O)O)c2ccccc2Cl)nn1-c1ccccc1F (single isomer, unassigned) [Example 758]",< 100
5,"CC(C)(C)[C@](C)(O)COc1cc(C(=O)N[C@@H](CC(=O)O)c2ccccc2Cl)nn1-c1ccccc1F (single isomer, unassigned) [Example 759]",< 100
6,"Cc1ccccc1[C@H](CC(=O)O)NC(=O)c1cc(OC[C@H](O)C2CC2)n(-c2ccccc2F)n1 (single isomer, unassigned) [Example 760]",< 100
7,"Cc1ccccc1[C@H](CC(=O)O)NC(=O)c1cc(OC[C@@H](O)C2CC2)n(-c2ccccc2F)n1 (single isomer, unassigned) [Example 761]",< 100
8,"Cc1ccccc1[C@H](CC(=O)O)NC(=O)c1cc(OC[C@](C)(O)C2CC2)n(-c2ccccc2F)n1 (single isomer, unassigned) [Example 763]",< 100
9,"Cc1ccccc1[C@H](CC(=O)O)NC(=O)c1cc(OC[C@@](C)(O)C2CC2)n(-c2ccccc2F)n1 (single isomer, unassigned) [Example 764]",< 100

# Same assay, conditions: read-out: Activity (2): Cathepsin A inhibitory activity, IC50 class
row,Structure (SMILES),IC50 [nM]
1,"Cc1ccccc1[C@H](CC(=O)O)NC(=O)c1cc(OC[C@@](C)(O)C(C)C)n(-c2ccccc2F)n1 (single isomer, unassigned) [Example 833]",1000 to 30000
2,Cc1ccc(C)c(-n2nc(C(=O)NC(CC(=O)O)c3ccc(F)cc3)cc2O)c1 (stereo not drawn) [Example 1],1000 to 30000
3,CCCC(CC(=O)O)NC(=O)c1cc(O)n(-c2ccccc2)n1 (stereo not drawn) [Example 2],1000 to 30000
4,"COc1ccc(C(CC(=O)O)NC(=O)c2cc(O)n(-c3ccccc3)n2)cc1 (stereo not drawn) [Example 3, 3-[(5-Hydroxy-1-phenyl-1H-pyrazole-3-carbonyl)-amino]-3-(4-methoxy-phenyl)-propionic acid]",100 to 1000
5,CC(C)(CC(=O)O)NC(=O)c1cc(O)n(-c2ccccc2)n1 [Example 4],1000 to 30000
6,O=C(O)CC1(NC(=O)c2cc(O)n(-c3ccccc3)n2)CCCC1 [Example 5],1000 to 30000
7,CC(C)(C)Oc1cccc(C(CC(=O)O)NC(=O)c2cc(O)n(-c3ccccc3)n2)c1 (stereo not drawn) [Example 6],1000 to 30000
8,"Cc1ccc(C)c(-n2nc(C(=O)NC(CC(=O)O)c3cccc(OC(C)(C)C)c3)cc2O)c1 (stereo not drawn) [Example 7, 3-(3-tert-Butoxy-phenyl)-3-{[1-(2,5-dimethyl-phenyl)-5-hydroxy-1H-pyrazole-3-carbonyl]-amino}-propionic acid]",1000 to 30000
9,Cc1ccc(C)c(-n2nc(C(=O)NC(C)(C)CC(=O)O)cc2O)c1 [Example 8],1000 to 30000
10,COc1cccc(C(CC(=O)O)NC(=O)c2cc(O)n(-c3ccccc3)n2)c1 (stereo not drawn) [Example 9],100 to 1000
11,O=C(O)CC(NC(=O)c1cc(O)n(-c2ccccc2)n1)c1cccc(Cl)c1 (stereo not drawn) [Example 10],100 to 1000
12,COc1ccc(C(CC(=O)O)NC(=O)c2cc(O)n(-c3ccccc3)n2)cc1OC (stereo not drawn) [Example 11],1000 to 30000
13,O=C(O)CC(NC(=O)c1cc(O)n(-c2ccccc2)n1)c1ccc(OC(F)(F)F)cc1 (stereo not drawn) [Example 12],100 to 1000
14,CC(C)C(CC(=O)O)NC(=O)c1cc(O)n(-c2ccccc2)n1 (stereo not drawn) [Example 13],1000 to 30000
15,CCCCC(CC(=O)O)NC(=O)c1cc(O)n(-c2ccccc2)n1 (stereo not drawn) [Example 14],100 to 1000
16,O=C(O)CC(CCc1ccccc1)NC(=O)c1cc(O)n(-c2ccccc2)n1 (stereo not drawn) [Example 15],1000 to 30000
17,O=C(O)CC(NC(=O)c1cc(O)n(-c2ccccc2)n1)c1cccnc1 (stereo not drawn) [Example 16],100 to 1000
18,O=C(O)CC(NC(=O)c1cc(O)n(-c2ccccc2)n1)C1CC1 (stereo not drawn) [Example 17],1000 to 30000
19,O=C(O)CC(NC(=O)c1cc(O)n(-c2ccccc2)n1)C1CCCCC1 (stereo not drawn) [Example 18],100 to 1000
20,CC(C)CC(CC(=O)O)NC(=O)c1cc(O)n(-c2ccccc2)n1 (stereo not drawn) [Example 19],100 to 1000
21,O=C(O)CC(NC(=O)c1cc(O)n(-c2ccccc2)n1)c1ccccc1Cl (stereo not drawn) [Example 20],100 to 1000
22,Cc1ccccc1C(CC(=O)O)NC(=O)c1cc(O)n(-c2ccccc2)n1 (stereo not drawn) [Example 21],100 to 1000
23,CCc1ccc(C(CC(=O)O)NC(=O)c2cc(O)n(-c3ccccc3)n2)cc1 (stereo not drawn) [Example 22],100 to 1000
24,CC(C)(C)Oc1ccc(C(CC(=O)O)NC(=O)c2cc(O)n(-c3ccccc3)n2)cc1 (stereo not drawn) [Example 23],1000 to 30000

row,Structure (SMILES),IC50 [nM]
1,CC(C)c1ccc(C(CC(=O)O)NC(=O)c2cc(O)n(-c3ccccc3)n2)cc1 (stereo not drawn) [Example 24],100 to 1000
2,COc1ccc(C(CC(=O)O)NC(=O)c2cc(O)n(-c3ccccc3)n2)c(C)c1C (stereo not drawn) [Example 25],1000 to 30000
3,CCCC(CC(=O)O)NC(=O)c1cc(O)n(-c2cc(C)ccc2C)n1 (stereo not drawn) [Example 26],1000 to 30000
4,COc1ccc(C(CC(=O)O)NC(=O)c2cc(O)n(-c3cc(C)ccc3C)n2)cc1 (stereo not drawn) [Example 27],1000 to 30000
5,COc1cccc(C(CC(=O)O)NC(=O)c2cc(O)n(-c3cc(C)ccc3C)n2)c1 (stereo not drawn) [Example 28],1000 to 30000
6,Cc1ccc(C)c(-n2nc(C(=O)NC(CC(=O)O)c3cccc(Cl)c3)cc2O)c1 (stereo not drawn) [Example 29],1000 to 30000
7,COc1ccc(C(CC(=O)O)NC(=O)c2cc(O)n(-c3cc(C)ccc3C)n2)cc1OC (stereo not drawn) [Example 30],1000 to 30000
8,Cc1ccc(C)c(-n2nc(C(=O)NC(CC(=O)O)c3ccc(OC(F)(F)F)cc3)cc2O)c1 (stereo not drawn) [Example 31],1000 to 30000
9,Cc1ccc(C)c(-n2nc(C(=O)NC(CC(=O)O)C(C)C)cc2O)c1 (stereo not drawn) [Example 32],1000 to 30000
10,CCCCC(CC(=O)O)NC(=O)c1cc(O)n(-c2cc(C)ccc2C)n1 (stereo not drawn) [Example 33],1000 to 30000
11,Cc1ccc(C)c(-n2nc(C(=O)NC(CCc3ccccc3)CC(=O)O)cc2O)c1 (stereo not drawn) [Example 34],1000 to 30000
12,Cc1ccc(C)c(-n2nc(C(=O)NC(CC(=O)O)c3cccnc3)cc2O)c1 (stereo not drawn) [Example 35],1000 to 30000
13,Cc1ccc(C)c(-n2nc(C(=O)NC(CC(=O)O)C3CC3)cc2O)c1 (stereo not drawn) [Example 36],1000 to 30000
14,Cc1ccc(C)c(-n2nc(C(=O)NC(CC(=O)O)C3CCCCC3)cc2O)c1 (stereo not drawn) [Example 37],1000 to 30000
15,Cc1ccc(C)c(-n2nc(C(=O)NC(CC(=O)O)CC(C)C)cc2O)c1 (stereo not drawn) [Example 38],1000 to 30000
16,Cc1ccc(C)c(-n2nc(C(=O)NC(CC(=O)O)c3ccccc3Cl)cc2O)c1 (stereo not drawn) [Example 39],1000 to 30000
17,Cc1ccc(C)c(-n2nc(C(=O)NC(CC(=O)O)c3ccccc3C)cc2O)c1 (stereo not drawn) [Example 40],100 to 1000
18,CCc1ccc(C(CC(=O)O)NC(=O)c2cc(O)n(-c3cc(C)ccc3C)n2)cc1 (stereo not drawn) [Example 41],1000 to 30000
19,Cc1ccc(C)c(-n2nc(C(=O)NC3(CC(=O)O)CCCC3)cc2O)c1 [Example 42],1000 to 30000
20,Cc1ccc(C)c(-n2nc(C(=O)NC(CC(=O)O)C3CCOCC3)cc2O)c1 (stereo not drawn) [Example 43],1000 to 30000
21,Cc1ccc(C)c(-n2nc(C(=O)NC(CC(=O)O)C3CCCC3)cc2O)c1 (stereo not drawn) [Example 44],1000 to 30000
22,Cc1ccc(C)c(-n2nc(C(=O)NC(CC(=O)O)c3ccc(Cl)cc3)cc2O)c1 (stereo not drawn) [Example 45],1000 to 30000
23,Cc1ccc(C)c(-n2nc(C(=O)NC(CC(=O)O)c3ccc(CC(C)C)cc3)cc2O)c1 (stereo not drawn) [Example 46],1000 to 30000

# Same assay, conditions: recombinant human cathepsin A 833 ng/ml, Bodipy FL-labeled bradykinin 2 μM, pH 5.5; read-out: CATH-A IC50
row,Structure (SMILES),IC50 [nM]
1,"Cc1ccccc1[C@H](CC(=O)O)NC(=O)c1cc(OC[C@H](O)C(C)(C)C)n(-c2ccccc2F)n1 (single isomer, unassigned) [Example 745]",4.7
2,"Cc1ccccc1[C@H](CC(=O)O)NC(=O)c1cc(OC[C@](C)(O)C(C)(C)C)n(-c2ccccc2F)n1 (single isomer, unassigned) [Example 747]",14.7
3,"Cc1ccccc1[C@H](CC(=O)O)NC(=O)c1cc(OC[C@@](C)(O)C(C)(C)C)n(-c2ccccc2F)n1 (single isomer, unassigned) [Example 748]",2.56
4,"CC(C)(C)[C@@](C)(O)COc1cc(C(=O)N[C@@H](CC(=O)O)c2ccccc2Cl)nn1-c1ccccc1F (single isomer, unassigned) [Example 758]",17.4
